# Test results from PMC12445744, “Molecular docking to homology models of human and Trypanosoma brucei ERK8 that identified ortholog-specific inhibitors” (PLOS Neglected Tropical Diseases, 2025).
# Values joined by “and” are separate entries in the source; they are usually repeats but may differ in a detail not shown here. Equal values may be shown once.
# Target: T1, TbERK8 (Trypanosoma brucei brucei, UniProt Q38B88)
# T1 sequence (Q38B88 1-442): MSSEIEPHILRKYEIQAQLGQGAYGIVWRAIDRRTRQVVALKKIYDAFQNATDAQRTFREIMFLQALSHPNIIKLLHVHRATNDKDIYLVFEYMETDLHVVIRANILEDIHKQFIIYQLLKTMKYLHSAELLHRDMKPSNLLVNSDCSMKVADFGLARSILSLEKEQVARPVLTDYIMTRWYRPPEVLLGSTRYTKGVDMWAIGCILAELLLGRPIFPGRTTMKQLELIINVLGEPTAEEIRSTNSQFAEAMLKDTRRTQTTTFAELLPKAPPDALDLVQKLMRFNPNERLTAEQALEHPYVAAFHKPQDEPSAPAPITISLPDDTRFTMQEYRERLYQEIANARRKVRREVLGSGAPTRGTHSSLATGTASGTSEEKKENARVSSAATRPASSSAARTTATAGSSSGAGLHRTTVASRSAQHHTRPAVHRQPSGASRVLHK
# Experiment: Luciferase-based kinase inhibition assay (ATP luminescence), GST-tagged TbERK8 with MBP substrate
# Type: biochemical
# Parameters: raw luminescence, TbERK8: unit of the concentration uncertain
# Settings: for raw luminescence, TbERK8: sheet Kinase_glo_080924_IFPS (2), replicate wells, listed as Ida
# Procedure: Escherichia coli strain Rosetta 2 (DE3) (Cat# 71397, MilliporeSigma, Burlington, MA) was transformed with the plasmid pGEX2T expressing the full-length hERK8 coding region or pGSTAg expressing the full-length TbERK8 coding region. One liter of Terrific Broth media containing 100 μg/ml Ampicillin and 30 μg/ml chloramphenicol in 2 L baffled flasks was inoculated with 25 mL from an overnight culture of Rosetta 2 strains harboring either the pGEX2T-hERK8 or pGSTAg-TbERK8 plasmid. Two baffled flasks were inoculated with each overnight strain and incubated and shaken at 175 RPM in a New Brunswick Innova 44R Incubator Shaker (Fischer Scientific, Pittsburgh, PA) at 37 °C until the cultures reached an O.D.600 of 0.94. Once the cultures in the flask reached the target O.D.600, the flasks were cooled to 4 °C in an ice water bath. The cooled cultures were induced by adding isopropyl β-D-1-thiogalactopyranoside (IPTG) to a final concentration of 0.1 mM and shaken at 16 °C for 16 hours at 175 RPM in a New Brunswick Innova 44R Incubator Shaker (Fischer Scientific, Pittsburgh, PA). On the next day, the cultures were pelleted by centrifugation at 9000 xg in a JLA 10.500 rotor (Beckman Coulter; Brea, CA), and the media was decanted. The pellet was flash-frozen in liquid nitrogen and then thawed on ice. The thawed pellet was resuspended in lysis buffer (25 mM Tris, 75 mM NaCl, 0.5% TritonX-100 and 0.5% Nonidet P-40, 1 mM phenylmethanesulfonyl fluoride, 1 mM benzamidine⋅HCl) and lysed using a microfluidizer M-110P from Microfluidics (Westwood, MA). The crude lysates were clarified by centrifugation at 140,000 xg in a 45Ti rotor (Beckman Coulter, Brea, CA) for 30 min at 4°C. The clarified lysate was loaded by gravity to a 3 mL glutathione agarose resin column (Cat# G-250–10, GOLDBIO, St. Louis, MO) formed in a 1.5 × 20 cm glass chromatography column (Cat# 7371522, Bio-Rad, Hercules, CA). The column was washed with 30 mL of PBS (pH 7.4) containing 1 mM DTT. Elution buffer (50 mM Tris buffer pH 8.0 containing 10 mM reduced glutathione and 1 mM DTT was added to the washed column), and 1 mL fractions were collected by gravity and examined by SDS-PAGE stained by Coomassie dye. Peak fractions pooled from the elution were dialyzed (4x 1:500 dilutions) in kinase buffer (30 mM Tris, pH 7.4, 10 mM MgCl2, 1 mM DTT, 5% glycerol).
# We performed kinase assays in buffer K (30 mM Tris pH 7.4, 10 mM MgCl2, 1 mM DTT, 5% glycerol, 50 μM ATP, and 0.1 mg/mL BSA) at 30°C for 30 min in 30 μL reactions. GST-tagged HsERK8 and TbERK8 were tested using myelin basic protein (MBP) (Cat# 13–110, Millipore, Darmstadt, Germany) as the substrate at increasing concentrations to determine the optimal activity for the assay. ATP consumption was determined by adding equal volumes of the kinase assay reagent (Promega, Cat# V5601, Madison, WI) following the manufacturer’s protocol. Luminescence was measured using the microplate reader (SpectraMax L, Molecular Devices, Sunnyvale, CA).
# These compounds were screened for kinase inhibition utilizing a luciferase-based assay. Briefly, the kinases were tested using MBP as the substrate at a 14-fold molar excess in 384-well flat-bottom white plates (BRANDTECH Scientific, Cat# 781681, Essex, CT). These compounds were tested at concentrations ranging from […] to 150 nM. The kinases plus MBP substrate reactions were incubated with each inhibitor for 30 minutes at 30°C. Equal volumes of kinase assay mix Promega (Cat# V5601, Madison, WI) were added to the kinase/inhibitor reaction after 30 minutes, following the manufacturer’s protocol. ATP luminescence was measured using a microplate reader (SpectraMax L, Molecular Devices, Sunnyvale, CA). IC50 values were calculated from assays done in triplicate by fitting the data using Prism 8.1.1 (GraphPad).
structure (smiles),measurement,setting,value
CC(=O)[C@]1(O)Cc2c(O)c3c(c(O)c2[C@@H](O[C@H]2C[C@H](N)[C@H](O)[C@H](C)O2)C1)C(=O)c1ccccc1C3=O [Idarubicin],"raw luminescence, TbERK8",0.00015 (unit uncertain) compound,2715.27 RLU and 2728.74 RLU and 2394.11 RLU
same,"raw luminescence, TbERK8",0.00061 (unit uncertain) compound,1071.28 RLU and 918.564 RLU and 956.744 RLU
same,"raw luminescence, TbERK8",0.00244 (unit uncertain) compound,1109.46 RLU and 1118.45 RLU and 925.302 RLU
same,"raw luminescence, TbERK8",0.00977 (unit uncertain) compound,992.678 RLU and 972.465 RLU and 952.252 RLU
same,"raw luminescence, TbERK8",0.03906 (unit uncertain) compound,1019.63 RLU and 976.957 RLU and 1073.53 RLU
same,"raw luminescence, TbERK8",0.15625 (unit uncertain) compound,1318.33 RLU and 1147.64 RLU and 1078.02 RLU
same,"raw luminescence, TbERK8",0.62500 (unit uncertain) compound,2223.42 RLU and 1980.86 RLU and 1909 RLU
same,"raw luminescence, TbERK8",2.50000 (unit uncertain) compound,2212.19 RLU and 2209.94 RLU and 2311.01 RLU
same,"raw luminescence, TbERK8","10.00000 (unit uncertain) compound, signal = ATP left",619.862 RLU and 786.057 RLU and 752.369 RLU
same,inhibitory effect on kinase activity of TbERK8,concentrations below 4.0 x10^-5 M (above this the red compound blocked luminescence),no detectible (n/d) inhibitory effect
